Results from patent publication US5618831A, “Composition and method for treating cancer” (Fuji Photo Film Co., Ltd., priority 1992, dated 1997).

Columns and labels:
[1] = test system: human colon carcinoma cell line CX-1; assay: colony formation, human colon carcinoma cell line CX-1 (24 h exposure, 7-10 days incubation); type: cell-based; settings: Table I; for Selectivity: ratio of IC50 for CV-1 and IC50 for CX-1; for IC50: Homo sapiens, CX-1 cells, 24 h treatment, colony number reduced to 50% of control
Protocol: (§1) CX-1 cells (2,000 cells/well) and CV-1 cells (1,000 cells/well) were plated in 24-well plastic culture plates. […] The control received culture media only. Cells were treated with compounds of General Formulas (I) to (III) at 37° C. for 24 hours. After rinsing with fresh culture medium three times, the cells were further incubated at 37° C. for 7 to 10 days. Cell colonies were fixed and stained with 2% crystal violet in 70% ethanol for 10 minutes and rinsed in water. […] The selectivity is defined as the ratio of IC50 for CV-1 and IC50 for CX-1.

normal nude mice = assay: toxicity to normal nude mice
[2] = absorption spectrum of methanol solutions; type: physicochemical; settings: for ε (molar absorptivity): at λmax; for λmax (MeOH): maximum absorption wavelength
Protocol: Absorption spectrum of methanol solutions of the compounds used in the present invention was determined.

[3] = test system: LOX, a human melanoma cell line; assay: nude mice bearing human melanoma (LOX, i.p.), survival; type: in vivo, human (LOX) in male athymic Swiss nu/nu mouse; settings: mean survival treated / untreated control
Protocol: Nude Mice Bearing Human Melanoma as a Model System
LOX, a human melanoma cell line, grown subcutaneously in nude mice was excised, trypsinized to yield a single cell suspension using a metal grid with a […]. Red blood cells were lysed by incubation with 0.17 molar ammonium chloride at 4° C. for 20 minutes. Five million viable trypan blue negative cells made up in 0.1 ml of Dulbecco modified Eagles' medium (DME) were injected into the peritoneal cavity of a male athymic Swiss nu/nu mouse. The control group and each treatment group consisted of 5 to 10 mice. Treatment was commenced the following day by intraperitoneal injection.
Ten control mice received 0.25 ml of 2% dextrose on those days the treated groups were injected with the compounds of this invention. The compounds used in this invention which were tested are listed in Table III below and the results obtained are also shown in Table III. T/C is the ratio, expressed as a percentage of the mean survival age of the treated group to the mean survival age of the untreated control group.

[4] = test system: normal monkey kidney epithelial cell line CV-1; assay: colony formation, normal monkey kidney epithelial cell line CV-1 (24 h exposure, 7-10 days incubation); type: cell-based; settings: Primates, CV-1 cells
Protocol: as §1

KB cell = assay: colony formation, KB cell (protocol of Example 1); settings: for IC50: Homo sapiens, KB, read-out: KB Cell (IC50); for Selectivity: Table II, ratio of IC50 for CV-1 and IC50 for KB cell
Protocol: as §1

[5] = Table I, 24 h treatment, colony number reduced to 50% of control
[6] = Table II, protocol of Example 1

ε (molar absorptivity) [2]	λmax (MeOH) [2] [nm]	IC50 (KB cell) [µg/mL]	SMILES	Selectivity [1]	Selectivity (KB cell)	also measured
8.31 × 10^4	570		CCN1C(C)=CSC1=CC=C1SC(=Nc2sc3cc(OC)ccc3[n+]2CC)N(CC)C1=O [Compound II-3]			
7.49 × 10^4	500		CCn1c(=Cc2sc3ccccc3[n+]2CC)sc(=C2Sc3ccccc3N2C)c1=O [Compound S-1, reference compound]			
9.44 × 10^4	593		CCn1c(=Cc2sc3ccccc3[n+]2CC)sc(=CC=C2Sc3ccccc3N2C)c1=O [Compound S-2, reference compound]			
5.78 × 10^4	520		CCN1CCSC1=CC=C1SC(=Nc2sc3ccccc3[n+]2CC)N(CC)C1=O [II-2]			
7.58 × 10^4	564	0.15	CC[n+]1c(N=C2SC(=CC=C3Sc4ccccc4N3C)C(=O)N2C)sc2ccccc21 [II-4]		196	IC50 [4, 6]: 29.4 µg/mL
		0.078	CN1C(=O)C(=CC=C2Sc3ccccc3N2C)SC1=Nc1scc[n+]1C [II-24]		336	IC50 [4, 6]: 26.2 µg/mL

More lines, now with the values behind:

SMILES	ε (molar absorptivity) [2]	λmax (MeOH) [2] [nm]	IC50 (KB cell) [µg/mL]	Selectivity [1]	Selectivity (KB cell)	also measured
CCN1C(=CC=Cc2sc3c4ccccc4ccc3[n+]2CC)Sc2c1ccc1ccccc21 [B, reference compound]				< 2		
CCN1C(=CC=c2sc(=Cc3sc4c([n+]3CC)CCCC4)n(CC)c2=O)Oc2ccccc21 [Compound C, reference compound]				50		toxicity to normal nude mice (normal nude mice): less toxic to normal nude mice
CCN1C(=O)C(=C2Sc3ccc(OC)cc3N2C)SC1=Nc1sc2ccccc2[n+]1CC [Compound I-5]	4.45 × 10^4	460				
CCN1C(=O)C(=C2Sc3ccccc3N2C)SC1=Nc1cccc[n+]1CC [Compound I-6, 1-ethyl-2-{[3-ethyl-5-(3-methylbenzothiazolin-2-ylidene)]-4-oxothiazolin-2-ylideneamino} pyridinium iodide]	3.52 × 10^4	434				
CCN1C(=O)C(=C2Sc3ccccc3N2C)SC1=Nc1cccc[n+]1CC [Compound I-7]	3.37 × 10^4	435				
CCN1C(=O)C(=C2Sc3ccc(OC)cc3N2C)SC1=Nc1sc2ccccc2[n+]1CC [Compound I-8]	4.50 × 10^4	467				
CCN1C(=O)C(=C2Sc3ccccc3N2C)SC1=Nc1sc2ccccc2[n+]1CC [Compound I-9]	4.87 × 10^4	460				
CCN1C(=O)C(=C2Sc3ccccc3N2C)SC1=Nc1scc[n+]1C [Compound I-10]	3.55 × 10^4	444		> 250		T/C (%) ([3]; 15 mg/kg i.p. on day 1, 2, 3, 6, 8, 10): 173%; IC50 [4, 5]: > 20 µg/mL; IC50 [1]: 0.08 µg/mL
CCN1C(=O)C(=C2Sc3ccccc3N2C)SC1=Nc1sc2cc(Cl)ccc2[n+]1CC [Compound I-17]	4.17 × 10^4	462				
CCN1C(=O)C(=C2Sc3ccccc3N2C)SC1=Nc1sc2cc(OC)ccc2[n+]1CC [Compound I-18]	4.74 × 10^4	466	0.15		177	IC50 [4, 6]: 26.5 µg/mL
CCN1C(=O)C(=C2Sc3ccc(C)cc3N2C)SC1=Nc1sc2ccccc2[n+]1CC [Compound I-19]				120		IC50 [4, 5]: 6 µg/mL; IC50 [1]: 0.05 µg/mL
CCN1C(=O)C(=C2Sc3c(ccc4ccccc34)N2C)SC1=Nc1cccc[n+]1CC [Compound I-25]			0.17	100	176	IC50 [4, 5]: 10 µg/mL; IC50 [1]: 0.1 µg/mL
CCN1C(=O)C(=C2C=Cc3ccccc3N2C)SC1=Nc1cccc[n+]1CC [Compound I-33]			0.39		77	
CCN1C(=O)C(=C2Sc3ccccc3N2C)SC1=Nc1scc[n+]1CC [Compound I-46]			0.083		330	T/C (%) ([3]; 10 mg/kg i.p. on day 1, 3, 4, 5, 6, 8): 175%; IC50 [4, 6]: 27.4 µg/mL
CCN1C(=O)C(=C2Sc3ccc4ccccc4c3N2C)SC1=Nc1scc[n+]1C [Compound I-47]			0.037		686	T/C (%) ([3]; 10 mg/kg i.p. on day 1, 3, 5): 207%; IC50 [4, 6]: 25.4 µg/mL
CCN1C(=O)C(=C2C=CN(C)c3ccccc32)SC1=Nc1scc[n+]1CC [Compound I-54]			0.27		111	T/C (%) ([3]; 6 mg/kg i.p. on day 1, 3, 4, 5, 6, 8): 169%
CCCN1C(=CC=CC=Cc2oc3ccccc3[n+]2CCC)Oc2ccccc21 [E, reference compound]				12		
CCN1C(=CC=CC=Cc2sc3ccccc3[n+]2CC)Oc2ccccc21 [F, reference compound]				50		
CCN1C(=CC(C)=Cc2sc3c4ccccc4ccc3[n+]2CC)Sc2c1ccc1ccccc21 [G, reference compound]				5		
CCN1C(=CC=C(Cl)C=Cc2sc3ccc4ccccc4c3[n+]2CC)Sc2ccc3ccccc3c21 [H, reference compound]				2.5		
CCN1C(=O)C(=CC=C2Sc3ccc4ccccc4c3N2CC)SC1=Nc1scc[n+]1C [II-7]			0.15	133	200	IC50 [4, 5]: 4 µg/mL; IC50 [1]: 0.03 µg/mL
CCN1C(=O)C(=CC=C2C=Cc3ccccc3N2CC)SC1=Nc1ccc2ccccc2[n+]1C [II-9]	5.80 × 10^4	582	0.15		200	
